# Paper PMC4046051, “Two M-T hook residues greatly improve the antiviral activity and resistance profile of the HIV-1 fusion inhibitor SC29EK” (Retrovirology, 2014)
# Peptide text beside a SMILES is read from it.
# Experiments:
# [1] = target: T1, six-helical bundle (6-HB) of N36 and biotinylated-C34 (Human immunodeficiency virus type 1 group M subtype B, UniProt P04578); assay: Inhibition of 6-HB formation, NC-1 capture ELISA; type: biochemical, HIV-1
# T1 construct: made in house; host or cells: chemical synthesis (solid-phase FMOC), no expression host
# T1 sequence (P04578 546-581): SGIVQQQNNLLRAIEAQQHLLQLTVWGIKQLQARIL
# Procedure: The 6-HB core-specific monoclonal antibody NC-1 was obtained from Dr. Shibo Jiang in the New York Blood Center (New York, NY) through the ARRRP, Division of AIDS, NIAID, National Institute of Health. The inhibitory activity of SC29EK or MT-SC29EK on the 6-HB formation was measured by a modified ELISA as previously described. Briefly, a 96-well polystyrene plate was coated with 2 μg/ml NC-1 in 0.1 M Tris buffer (pH 8.8). A tested peptide at graded concentrations was mixed with the biotinylated-C34 (0.1 μM) and incubated with N36 (0.1 μM) at room temperature for 30 min. The mixture was then added to the NC-1-coated plate, followed by incubation for 30 min and washing with a washing buffer (PBS containing 0.1% Tween 20) three times. Then horseradish peroxidase (HRP)-labeled streptavidin (Invitrogen) and the substrate 3,3,5,5- tetramethylbenzidine (Sigma) were sequentially added. Absorbance at 450 nm (A450) was measured using an ELISA reader.
# HIV-1 NL4-3 V38A = assay: Inhibition of T20-resistant HIV-1 variants: V38A; type: cell-based
# Procedure: (§1) The inhibition of peptides on the HIV-1 entry was determined by single-cycle infection assay as described previously. Briefly, HIV-1 pseudovirus was generated by cotransfecting 293 T cells with an Env-expressing plasmid and a backbone plasmid pSG3^Δenv that encodes Env-defective, luciferase-expressing HIV-1 genome. The supernatants were harvested and filtered 48 h after transfection and 50% tissue culture infectious dose (TCID50) was determined in TZM-bl cells. The peptides were prepared with 3-fold dilutions and mixed with 100 TCID50 viruses and then incubated 1 h at room temperature. The mixture was added to TZM-bl cells (10^4/well) and incubated 48 h at 37°C. The luciferase activity was measured using luciferase assay reagents and a Luminescence Counter (Promega).
# HIV-1 NL4-3 V38M = assay: Inhibition of T20-resistant HIV-1 variants: V38M; type: cell-based
# Procedure: as §1
# HIV-1 NL4-3 WT = assay: Inhibition of T20-resistant HIV-1 variants panel: WT; type: cell-based
# Procedure: as §1
# HIV-1 NL4-3 I37T = assay: Inhibition of T20-resistant HIV-1 variants: I37T; type: cell-based
# Procedure: as §1
# HIV-1 NL4-3 V38A/N42T = assay: Inhibition of T20-resistant HIV-1 variants: V38A/N42T; type: cell-based
# Procedure: as §1
# HIV-1NL4-3 pseudovirus = type: cell-based
# Procedure: as §1
# HIV-1 NL4-3 D36S/V38M = assay: Inhibition of T20-resistant HIV-1 variants: D36S/V38M; type: cell-based
# Procedure: as §1
# wild-type HIV-1NL4-3 = type: cell-based
# Procedure: The inhibition of peptides on HIV-1 replication was determined by a molecular cloned wild-type HIV-1NL4–3. In brief, the virus stock was harvested and quantified 48 h post-transfection. 100 TCID50 viruses were used to infect TZM-bl cells in the presence or absence of serially diluted peptides. Two days post-infection, the cells were harvested and lysed in reporter lysis buffer and the luciferase activity was measured as described above.
# [2] = target: T2, NHR peptide N36 (HIV-1 gp41) (Human immunodeficiency virus type 1 group M subtype B, UniProt P04578); assay: CD thermal denaturation of 6-HB formed by CHR peptide and N36; type: binding; conditions: CHR peptide + N36, each 10 μM in PBS pH 7.2; CD at 222 nm, 20-98°C
# T2 construct: made in house; host or cells: chemical synthesis (solid-phase FMOC), no expression host
# T2 sequence (P04578 546-581): as above
# Procedure: CD spectroscopy was performed according to our protocols described previously. […] The final concentration of each peptide was 10 μM in PBS buffer (pH 7.2). The CD spectra were acquired on a Jasco spectropolarimeter (model J-815) using a 1 nm bandwidth with a 1 nm step resolution from 195 to 260 nm at room temperature. The spectra were corrected by subtraction of a blank corresponding to the solvent. Data were averaged over three accumulations. The α-helical content was calculated from the CD signal by dividing the mean residue ellipticity [θ] at 222 nm by the value expected for 100% helix formation (-33,000 degrees.cm^2.dmol^-1). The thermal denaturation experiment was performed by monitoring the change in ellipticity [θ] at 222 nm at the increasing temperature (20–98°C) using temperature controller. The temperature was increased at a rate of 1.2°C per min; data were acquired at a 1 nm bandwidth at 222 nm at a frequency of 0.25 Hz. The melting curve was smoothened, and the midpoint of the thermal unfolding transition (Tm) values were taken as the maximum of the derivative d [θ]222/dT. The Tm value was detected at a peptide concentration of 10 μM in PBS buffer.
# HIV-1 NL4-3 N43K = assay: Inhibition of T20-resistant HIV-1 variants: N43K; type: cell-based
# Procedure: as §1
# HIV-1 NL4-3 Q40H = assay: Inhibition of T20-resistant HIV-1 variants: Q40H; type: cell-based
# Procedure: as §1
# HIV-1 NL4-3 I37T/N43K = assay: Inhibition of T20-resistant HIV-1 variants: I37T/N43K; type: cell-based
# Procedure: as §1
# [3] = target: T2, NHR peptide N36 (HIV-1 gp41); assay: Isothermal titration calorimetry (ITC) with N36; type: binding; conditions: 25°C
# Procedure: ITC assay was performed using an ITC200 Microcalorimeter instrument (MicroCal, USA) as described previously. In brief, 1 mM N36 dissolved in ddH20 was injected into the chamber containing 100 μM SC29EK or MT-SC29EK. The experiments were carried out at 25°C. The time between injections was 240 s and the stirring speed was 500 rpm. The heats of dilution were determined in control experiments by injecting N36 into ddH20 and subtracted from the heats produced in the corresponding peptide-peptide binding experiments. Data acquisition and analysis were performed using MicroCal Origin software (version 7.0).
# [4] = mean ± SD of three independent experiments, SD
smiles,measurement,setting,value
CC[C@H](C)[C@H](NC(=O)[C@H](CC(C)C)NC(=O)[C@H](CCC(=O)O)NC(=O)[C@H](CCC(=O)O)NC(=O)[C@@H](NC(=O)[C@H](CCCCN)NC(=O)[C@H](CCCCN)NC(=O)[C@@H](NC(=O)[C@H](Cc1ccc(O)cc1)NC(=O)[C@H](CCC(=O)O)NC(=O)[C@H](CCC(=O)O)NC(=O)[C@@H](NC(=O)[C@H](CCCCN)NC(=O)[C@H](CCCCN)NC(=O)[C@H](CC(=O)O)NC(=O)[C@H](Cc1c[nH]c2ccccc12)NC(=O)[C@H](CCC(=O)O)NC(=O)[C@H](CCC(=O)O)NC(=O)[C@H](Cc1c[nH]c2ccccc12)NC(=O)[C@@H](NC(=O)[C@H](CCSC)NC(C)=O)[C@@H](C)O)[C@@H](C)CC)[C@@H](C)O)[C@@H](C)CC)C(=O)N[C@@H](CCCCN)C(=O)N[C@@H](CCCCN)C(=O)N[C@@H](CO)C(=O)N[C@@H](CCC(=O)O)C(=O)N[C@@H](CCC(=O)O)C(=O)N[C@@H](CCC(N)=O)C(=O)N[C@@H](CCC(N)=O)C(=O)N[C@@H](CCCCN)C(=O)N[C@@H](CCCCN)C(=O)N[C@@H](CC(N)=O)C(N)=O [MT-SC29EK] (Ac-MTWEEWDKKIEEYTKKIEELIKKSEEQQKKN-NH2),fold increase of 6-HB blocking potency over SC29EK,[1],23 fold
same,IC50,"[1]; biotinylated-C34 0.1 μM, N36 0.1 μM, 30 min room temperature, 3 independent experiments",600000 pM
same,n-fold relative to the IC50 of the wild-type (WT) virus,HIV-1 NL4-3 V38A,1
same,IC50,HIV-1 NL4-3 V38A; [4],600 ± 100 pM
same,n-fold relative to the IC50 of the wild-type (WT) virus,HIV-1 NL4-3 V38M,2.8
same,IC50,HIV-1 NL4-3 V38M; [4],1700 pM
same,n-fold relative to the IC50 of the wild-type (WT) virus,HIV-1 NL4-3 WT,1
same,IC50,HIV-1 NL4-3 WT; [4],600 ± 100 pM
same,n-fold relative to the IC50 of the wild-type (WT) virus,HIV-1 NL4-3 I37T,1.3
same,IC50,HIV-1 NL4-3 I37T; [4],800 ± 200 pM
same,n-fold relative to the IC50 of the wild-type (WT) virus,HIV-1 NL4-3 V38A/N42T,1
same,IC50,HIV-1 NL4-3 V38A/N42T; [4],600 pM
same,"fold increased potency over SC29EK, entry",HIV-1NL4-3 pseudovirus,3.1 fold
same,IC50,"HIV-1NL4-3 pseudovirus; 100 TCID50, TZM-bl cells, 48 h, luciferase, mean ± SD of three independent experiments, SD, read-out: IC50 Entry",700 pM
same,n-fold relative to the IC50 of the wild-type (WT) virus,HIV-1 NL4-3 D36S/V38M,2
same,IC50,HIV-1 NL4-3 D36S/V38M; [4],1200 pM
same,"fold increase of potency over SC29EK, replication",wild-type HIV-1NL4-3; wild-type HIV-1NL4-3,4.5 fold
same,IC50,"wild-type HIV-1NL4-3; wild-type HIV-1NL4-3, 100 TCID50, TZM-bl cells, two days, luciferase, mean ± SD of three independent experiments, SD, read-out: IC50 Replication",200 pM
same,Tm (midpoint of the thermal unfolding transition) of 6-HB,[2],79.1 °C
same,n-fold relative to the IC50 of the wild-type (WT) virus,HIV-1 NL4-3 N43K,12
same,IC50,HIV-1 NL4-3 N43K; [4],7200 ± 200 pM
same,n-fold relative to the IC50 of the wild-type (WT) virus,HIV-1 NL4-3 Q40H,1.3
same,IC50,HIV-1 NL4-3 Q40H; [4],800 ± 100 pM
same,n-fold relative to the IC50 of the wild-type (WT) virus,HIV-1 NL4-3 I37T/N43K,35.3
same,IC50,HIV-1 NL4-3 I37T/N43K; [4],21200 ± 4400 pM
same,Kd,"[3]; 1 mM N36 injected into 100 μM peptide, read-out: binding constant (K) (converted)",15500 pM
same,fold increase of K value compared to SC29EK,[3],4.7 fold
